From article PMC6561471 (The Lancet. Oncology, 2018)
“Also recorded” adds a separate entry of the source.

What was measured:
nasopharyngeal cancer = conditions: pazopanib tablet formulation 800 mg/day, monotherapy; cited from earlier work
[1] = suspension formulation compared with tablet; cited from earlier work
[2] = tested on: patients with recurrent or metastatic HNSCC; assay: adverse events graded by NCI-CTCAE version 4.0, all cycles of treatment
[3] = tested on: patients with recurrent or metastatic HNSCC; assay: phase 1b dose escalation; format: in vivo; conditions: with fixed dose of cetuximab; doses 200-800 mg/day; assessed in cycle 1
[4] = tested on: recurrent or metastatic HNSCC; conditions: single-arm study; cited from earlier work
[5] = tested on: recurrent or metastatic HNSCC; conditions: first-line treatment; cited from earlier work

Cc1ccc(Nc2nccc(N(C)c3ccc4c(C)n(C)nc4c3)n2)cc1S(N)(=O)=O [pazopanib]
disease control, patients (nasopharyngeal cancer): 55%
decrease of time taken to reach Cmax (Tmax) [1]: 50%
increase of area under the curve (AUC)(0–72 h) [1]: 33%
increase of maximum plasma concentration (Cmax) [1]: 29%
grade 4 adverse events attributable to pazopanib ([2]; all 31 patients): no grade 4 adverse events
most common grade 3 adverse events attributable to pazopanib ([2]; all cycles): hypertension, anaemia, fatigue, hypoalbuminaemia, and venous thromboembolism; also recorded: hypertension, anaemia, fatigue, hypoalbuminaemia, neutropenia, and diarrhoea
maximum tolerated dose of pazopanib [3]: not reached

CNC(=O)c1cc(Oc2ccc(NC(=O)Nc3ccc(Cl)c(C(F)(F)F)c3)cc2)ccn1 [sorafenib]
activity as monotherapy [4]: modest activity

bevacizumab
effect of addition of bevacizumab to chemotherapy [5]: improvement of progression-free survival and overall survival

CCN(CC)CCNC(=O)c1c(C)[nH]c(/C=C2\C(=O)Nc3ccc(F)cc32)c1C [sunitinib]
activity as monotherapy [4]: modest activity
